# Source: US6673340B1, “Basement membrane degrading proteases as insect toxins and methods of use for same” (Iowa State University Research Foundation, Inc., priority 1999, dated 2004)
# Tested on: zinc metalloproteases
# Experiment: Azocoll assay with selective protease inhibitor
# Format: biochemical
# Conditions: 1 mM inhibitor, azocoll assay pH 7.6
# Method: Azocoll assays were carried out as described by Fisher and Werb (1995). For assays on medium from cells infected with the viruses expressing the mammalian proteases, all medium samples were concentrated 10-fold except for medium from AcMLF9.STR1-infected cells. Samples for analysis of S. peregrina cathepsin L expression were not concentrated. Aliquots of infected cell medium (2.5 μl for AcMLF9. ScathL-infected cells, 40 μl for all other samples) were mixed with 200 μl of 2 mg/ml azocoll suspended either in 50 mM Tris, pH 7.6-10 mM CaCl2-200 mM NaCl-50 μM ZnSO4 (for detection of stromelysin-1 and gelatinase A activity) or in 0.1 M sodium acetate, pH 5.0 (for detection of cathepsin L activity) in a final volume of 240 μl. A control reaction with sufficient dispase (Boehringer Mannheim, Indianapolis, Ind.) to digest all azocoll in the reaction tube was used as a standard. […] Absorbance of the supernatant was measured at 520 nm for each reaction, and mg azocoll digested/ml medium was calculated based on the absorbance of the dispase control reaction (Fisher, S. J., and Werb, Z. 1995. The catabolism of extracellular matrix components. In “Extracellular Matrix: A Practical Approach” (M. A. Haralson, and J. R. Hassell, Eds.), pp. 261-287. Oxford University Press, New York).
smiles,measurement,value
"c1cnc2c(c1)ccc1cccnc12 [1,10-phenanthroline]",Inhibition of proteolytic activity in supernatants of stromelysin- and gelatinase-expressing virus infections,inhibited
